Test results from PubChem BioAssay (NCI).
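All cell lines were grown in 96-well plates and treated with compound for 48 hours. At the GI50, growth is halved. TGI denotes the concentration required for complete inhibition of growth.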

Tests used:
Test in all cases: NCI-60 cell line screen, 48 h
HCC-2998 colon = test system: HCC-2998 colon
EKVX NSCLC = test system: EKVX NSCLC
HOP-92 NSCLC = test system: HOP-92 NSCLC
SK-MEL-28 melanoma = test system: SK-MEL-28 melanoma
SF-268 CNS = test system: SF-268 CNS
OVCAR-5 ovarian = test system: OVCAR-5 ovarian
COLO 205 colon = test system: COLO 205 colon
SNB-75 CNS = test system: SNB-75 CNS
SR leukemia = test system: SR leukemia
ACHN renal = test system: ACHN renal
A498 renal = test system: A498 renal
OVCAR-4 ovarian = test system: OVCAR-4 ovarian
M14 melanoma = test system: M14 melanoma
SN12C renal = test system: SN12C renal
U251 CNS = test system: U251 CNS
BT-549 breast = test system: BT-549 breast
SK-OV-3 ovarian = test system: SK-OV-3 ovarian
SW-620 colon = test system: SW-620 colon

SMILES	TGI (HCC-2998 colon) [µM]	TGI (EKVX NSCLC) [µM]	TGI (HOP-92 NSCLC) [µM]	TGI (SK-MEL-28 melanoma) [µM]	TGI (SF-268 CNS) [µM]	TGI (OVCAR-5 ovarian) [µM]	TGI (COLO 205 colon) [µM]	TGI (SNB-75 CNS) [µM]	TGI (SR leukemia) [µM]	TGI (ACHN renal) [µM]	TGI (A498 renal) [µM]	TGI (OVCAR-4 ovarian) [µM]	TGI (M14 melanoma) [µM]	TGI (SN12C renal) [µM]	TGI (U251 CNS) [µM]	TGI (BT-549 breast) [µM]	TGI (SK-OV-3 ovarian) [µM]	TGI (SW-620 colon) [µM]	GI50 (SR leukemia) [µM]
CC(C)C1CC(CO)(CNc2nc(N)nc(Cl)c2/C=N\O)C1 (stereo unspecified)	17.8	11.7	35.2	26.1	> 79.5	85.2	11.8	43.6	> 54.2	35	34.6	28.3	26.1	> 89.5	39.6	28.7	30.2	61.2	
CC1(C)CCCC2CC2CCC(C)(C)C1=O (stereo unspecified)	21.7	> 100	> 100	> 100	> 100	> 100	39	> 100	45.6	> 100	> 100	> 100	> 100	> 100	37.3	> 100	> 100	> 100	
CCCCC(O)(c1ccccc1)C(O)(c1ccccc1)c1c(F)c(F)c(F)c(F)c1F (stereo unspecified)	31	59.6	44.8	86.1	53.1	41.1		> 100	76.7	72.6	49.4	> 100	> 100	31.1	32	> 100	> 100	61.8	
Cc1cc(O)c2c(c1)C(C1OC(CO)C(O)C(O)C1O)c1cc(O)cc(O)c1C2=O (stereo unspecified)	> 100	> 100	> 100	> 100	> 100	> 100	> 100	> 100	> 100	> 100	> 100	> 100	> 100	> 100	> 100	> 100	> 100	> 100	
C=C1C2C[C@@H]3O[C@H]4C[C@H]5O[C@@]6(C[C@@H]7O[C@]8(C[C@H](C)[C@@H]9O[C@@H]%10CC(C=O)O[C@@H]%10C[C@@H]9O8)C[C@H](C)[C@@H]7O6)C[C@H]5O[C@H]4[C@H](C)[C@H]3OC(=O)C[C@H]3CC[C@@H]4OC5[C@H]6O[C@]7(CC[C@H]8CC(=C)[C@H](CC[C@@H](C[C@H]1C)O2)O8)CC6O[C@@H]5[C@@H](O7)[C@H]4O3 (stereo partly specified)	> 1	> 1	> 0.42				0.00103	> 1	> 1	> 1	> 1	> 1	> 1	> 1	> 1	< 0.0001	> 1	> 1	
CCCCCCc1cc2cc(C(=O)NCc3ccccc3)c(=N)oc2cc1O	> 100	> 100	> 100	> 100	> 100	> 100	> 100	> 100	> 100	> 100	> 100	> 100	> 100	> 100	> 100	> 100	> 100	> 100	
COc1ccc(Cc2cc(OC)c(OC)c(OC)c2)cc1	1.4	> 100	85.6	> 100	> 100	> 100	1.51	> 18.5	1.4	> 93.3	24.6	> 100	> 100	> 89.3	34.3	75.6	23.2	> 100	
COC(=O)CNC(=O)CNC(=O)CSc1nnc(COc2ccc(Cl)cc2)n1-c1ccccc1	> 100	> 100	49.5	56.3	51.6	> 100	> 100	60.2	86.6	> 100	> 100	> 100	> 100	> 100	> 100	58.8		> 100	
O=S(=O)(O)c1ccc(Nc2ccnc3ccccc23)cc1	> 100	> 100	> 100	> 100	> 100	> 100	> 100	> 100	> 100	> 100	> 100	> 100	> 100	> 100	> 100	> 100	> 100	> 100	
O=C(O)C1CC(C2CCCCN2)CN2CCCCC12 (stereo unspecified)	> 100	> 100	> 100	> 100	> 100	> 100	> 100	> 100	> 100	> 100	> 100	> 100	> 100	> 100	> 100	> 100	> 100	> 100	
O=C1C=CC(=O)c2c(O)c(NCCO)c(Cl)c(O)c21	> 7.21	> 10	> 10	3.65	> 10	> 5.87	3.4	> 6.54	> 6.94	> 10	> 10	1.49	4.78	> 5.55	> 10	> 5.74	> 10	5.11	
O=C(CCc1ccc(O)c(O)c1)NCCc1ccccc1	> 100	> 100	> 100	> 100	> 100	> 100	> 100	> 100	47.5	> 100	> 100	> 54.2	> 100	> 31.6	> 100	> 89.1	> 100	> 100	
COC(=O)CN=C1NC(=S)N(Cc2ccc(OC)cc2)C12CCCC2	> 100	> 100	> 100	> 100	> 100	> 100	> 100	> 100	> 100	> 100	> 100	> 100	> 100	> 100	> 100	> 100	> 100	> 100	
CCCCCCCCCC(=O)NCCc1c[nH]c2ccc(OC)cc12	36.1	89.8	31.3	33.1	34.2	61.2	55.7	44	> 100	30.6	29.9	> 100	34	33.1	31.2	32.9	31.7	34.5	
O=C(NNC(=S)Nc1ccc(Cl)cc1)C12CC3CC(CC(C3)C1)C2	27	55	56.7	60.8	32	81.1	18.3	51.1	4.83	29	22.9	54.5	26.6	28.7	24.8	39.4	64.7	35.6	
O=C1CNc2cc(N3CCOCC3)ccc2N1	> 100	> 100	> 100	> 100	> 100	> 100	> 100	> 100	> 100	> 100	> 100	> 100	> 100		> 100	> 100	> 100	> 100	
O=C(c1cc(Cl)cc(Cl)c1)N(Cc1cccnc1)C(=S)N(Cc1cccnc1)C(=O)c1cc(Cl)cc(Cl)c1	49.6	> 100	> 100	> 100	> 100	> 100	38.5	> 100	> 100	47.3	81.2	89.6	72	> 100	61.3	81.5	> 100	> 100	
C[C@@H](Oc1ccc(Oc2cnc3ccc(Cl)cc3n2)cc1)C(=O)O	> 100	> 100	> 100	> 100	> 100	> 100	> 100	> 100	> 100	> 100	> 100	> 100	> 100	> 100	> 100	> 100	> 100	> 100	> 24.3
O=C(/C=C\c1ccsc1)c1ccccc1	24.3	27.7	41.4	24.9	21.8	32.4	30.5	24.3	> 21.7	21.1	15.5	16.4	21.8	24.6	15.3	26.2	30.8	12.3	
CCCC(=O)N(C)N=Nc1ccc(C(=O)OCC)cc1	> 100	> 100	> 100	> 100	> 100	> 100		> 100	> 100	> 100	> 100	> 100	> 100	> 100	> 100	> 100		> 100	
CC(O)CC(=O)CO[C@H]1[C@H](O)[C@@H](O)[C@@H](O)[C@@H]2NC(=O)c3c(cc4c(c3O)OCO4)[C@H]21 (stereo partly specified)	0.0609	0.14	0.64	8.03	0.0626	0.48	0.135	0.404	0.125	0.613	0.072	0.287	0.149	0.784	0.307	0.482		> 100	
COc1ccc(OC)c(N=Cc2cc(OC)c(OC)c(OC)c2)c1	> 100	> 100	> 78	> 100	> 100	> 100	> 100	> 100	> 100	> 100	> 100	> 100	> 100	> 100	> 100	> 100	> 100	> 100	
CCOc1cc(/C=N/c2nc3cc4sc(/N=C/c5ccc(O)c(OCC)c5)nc4cc3s2)ccc1O	> 100	> 100	> 100	42.7	> 100	> 100	> 100	> 100	> 100	> 100	> 100	> 100	> 100	> 100	> 100	> 100	> 100	> 100	
